Each cell line was assayed with CN1CCC(CC1)OC2=CC(=C(C=C2)NC3=NC=C4C(=N3)N(C(=O)N4C)C5CCCC5)OC [AZ3146] + CC1(C)CCC(c2ccc(Cl)cc2)=C(CN2CCN(c3ccc(C(=O)NS(=O)(=O)c4ccc(N[C@H](CCN5CCOCC5)CSc5ccccc5)c(S(=O)(=O)C(F)(F)F)c4)cc3)CC2)C1 [Navitoclax] (partner 0.5 µM) (assay: relative viability (nuclei count vs DMSO), 5 days (fraction); higher = more cells survive). Settings: first compound 8 µM.
Summary of the method: (§1)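 A single step with final 0.05% Triton X-100, 1% formaldehyde and 1 ug/ml Hoechst fixed the cells and stained nuclei 5 days after treatment. Lung cancer cell lines in 1536-well plates had been treated by pin tool the day after seeding with one drug alone or a fixed anchor-drug dose plus five library-drug doses (not always all listed) in √10 steps, and nuclei were counted on 4× images. Relative viability is the ratio of nuclei in treated wells to nuclei in vehicle wells, taken as the median of duplicate plates.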

Cell Line | relative viability
HCC-44 | 1.01
NCI-H1734 | 0.846
LK-2 | 0.929
NCI-H2228 | 0.845
NCI-H1944 | 1.15
HARA | 1.11
Calu-6 | 0.278
COR-L23 | 0.923
EBC-1 | 0.229
A549 | 0.0543
NCI-H1299 | 1.01
NCI-H1792 | 0.654
IA-LM | 0.156
NCI-H1703 | 0.283
NCI-H727 | 0.413

What follows are cell lines tested with CCOC(=O)CCNc1cc(N2CCc3ccccc3CC2)nc(-c2ccccn2)n1 [GSK-J4] + CC1(C)CCC(c2ccc(Cl)cc2)=C(CN2CCN(c3ccc(C(=O)NS(=O)(=O)c4ccc(N[C@H](CCN5CCOCC5)CSc5ccccc5)c(S(=O)(=O)C(F)(F)F)c4)cc3)CC2)C1 [Navitoclax] (partner 0.5 µM) in the same assay as above. Settings: first compound 0.5 µM.
Summary of the method: as §1

Cell Line | relative viability
PC-14 | 0.939
NCI-H1666 | 1.08
EKVX | 0.871
NCI-H1755 | 0.978
NCI-H2023 | 0.921
HCC-78 | 0.779
SK-LU-1 | 0.733
PC-3 [JPC-3] | 0.77
LOU-NH91 | 0.733
NCI-H647 | 1.02
NCI-H23 | 0.856
EPLC-272H | 1.14
NCI-H2126 | 0.823
ChaGo-K-1 | 1.09
HCC-44 | 0.973
NCI-H1734 | 0.83
LK-2 | 0.884
NCI-H2228 | 1.1
NCI-H1944 | 1.06
HARA | 1.16
Calu-6 | 0.86
COR-L23 | 0.886
EBC-1 | 0.367
A549 | 1.08
NCI-H1299 | 1.08
NCI-H1792 | 0.621
IA-LM | 0.747
NCI-H1703 | 0.944
NCI-H727 | 0.394

Same assay, conditions: first compound 1.581 µM

Cell Line | relative viability
PC-14 | 1.02
EKVX | 0.874
NCI-H1755 | 0.888
NCI-H2023 | 0.976
HCC-78 | 0.681
SK-LU-1 | 0.832
PC-3 [JPC-3] | 0.742
LOU-NH91 | 0.743
NCI-H647 | 0.737
NCI-H2126 | 0.842
HCC-44 | 0.91
NCI-H1734 | 0.736
LK-2 | 0.838
NCI-H2228 | 0.868
NCI-H1944 | 0.953
HARA | 0.827
Calu-6 | 0.74
COR-L23 | 1.02
EBC-1 | 0.4
A549 | 1.15
NCI-H1299 | 0.875
NCI-H1792 | 0.571
IA-LM | 0.718
NCI-H1703 | 0.963

Same assay, conditions: first compound 5 µM

Cell Line | relative viability
PC-14 | 0.948
NCI-H1666 | 1.19
EKVX | 1.12
NCI-H1755 | 0.975
NCI-H2023 | 1.08
HCC-78 | 1.01
SK-LU-1 | 0.682
PC-3 [JPC-3] | 0.787
LOU-NH91 | 0.577
NCI-H647 | 0.981
NCI-H23 | 0.886
EPLC-272H | 1.21
NCI-H2126 | 0.849
ChaGo-K-1 | 1.02
HCC-44 | 1.08
NCI-H1734 | 0.694
LK-2 | 0.874
NCI-H2228 | 1.07
NCI-H1944 | 1.15
Calu-6 | 0.779
EBC-1 | 0.356
A549 | 1.24
NCI-H1299 | 0.955
NCI-H1792 | 0.574
IA-LM | 0.802
NCI-H1703 | 0.776
NCI-H727 | 0.648

Same assay, conditions: first compound 15.81 µM

Cell Line | relative viability
PC-14 | 1.02
NCI-H1666 | 0.918
EKVX | 0.834
NCI-H1755 | 0.955
NCI-H2023 | 0.991
SK-LU-1 | 0.596
PC-3 [JPC-3] | 0.743
LOU-NH91 | 0.571
NCI-H647 | 1.06
NCI-H23 | 0.893
EPLC-272H | 0.979
NCI-H2126 | 0.72
ChaGo-K-1 | 1.03
HCC-44 | 0.817
NCI-H1734 | 0.734
LK-2 | 0.829
NCI-H2228 | 0.8
NCI-H1944 | 0.913
HARA | 1.15
Calu-6 | 0.874
COR-L23 | 0.929
EBC-1 | 0.4
A549 | 1.24
NCI-H1299 | 1.04
NCI-H1792 | 0.567
IA-LM | 0.666
NCI-H1703 | 1.08
NCI-H727 | 0.404

Same assay, conditions: first compound 50 µM

Cell Line | relative viability
PC-14 | 0.926
NCI-H1666 | 0.472
EKVX | 0.951
NCI-H1755 | 0.96
NCI-H2023 | 0.915
HCC-78 | 0.689
SK-LU-1 | 0.537
PC-3 [JPC-3] | 0.753
LOU-NH91 | 0.764
NCI-H647 | 1.09
NCI-H23 | 0.867
EPLC-272H | 1.02
NCI-H2126 | 0.709
ChaGo-K-1 | 0.895
HCC-44 | 0.898
NCI-H1734 | 0.632
LK-2 | 1.05
NCI-H2228 | 0.871
NCI-H1944 | 1
HARA | 0.916
Calu-6 | 0.716
COR-L23 | 0.956
EBC-1 | 0.264
A549 | 1.2
NCI-H1299 | 0.971
NCI-H1792 | 0.514
IA-LM | 0.105
NCI-H1703 | 1.25
NCI-H727 | 0.208

Source: the supplement of paper PMC10307832
